The text below walks through data of patent US20210346359A1, “Use of CFTR Modulators For Treating Cerebrovascular Conditions” (Qanatpharma AG, priority 2018, published 2021).

The subject of one experiment is CFTR mRNA. Description: Quantitative PCR of CFTR mRNA in cerebral arteries of naïve mice treated in vivo. Also noted: species or system mouse. As to conditions: 3 mg/kg daily for 2 days, vs vehicle controls. The text has this: Resistance artery RNA was isolated with Norgen Biotek (Thorold, Canada) “Total RNA Purification Micro” spin columns, using the proteinase K digestion and DNA removal procedures, as directed by the manufacturer's instructions. The eluted RNA was quantified with an Agilent Technologies RNA 6000 Pico Kit and Bioanalyzer; the analysis confirmed that high-quality RNA was retrieved from the artery tissue samples (RNA Integrity [RIN]: Cerebral=8.4±0.1, n=5; Cremaster=8.2±0.4, n=6). Isolation of RNA from Baby Hamster Kidney fibroblast cells followed the same procedure, with the omission of the proteinase K digestion step. […]
Quantitative FOR was performed using an Applied Biosystems ViiA™ 7 Real Time FCR system and Power SYBR® Green FCR master mix (both distributed by lnvitrogen Life Technologies). […] Gene targets were assessed in triplicate, using 1 ng of cDNA generated from the reverse transcription; negative controls received water. […] Transcript expression levels in mouse tissues were calculated from the DCt values relative to the standard housekeeping gene hydroxymethylbilane synthase (HMBS). To confirm that HMBS was reliable for normalization, transcript expression levels were also calculated from the DCt values relative to glucose-6-phosphate dehydrogenase (G6PD), which returned similar results. […]

The target of experiment [1] is T1, CFTR (Mus musculus, UniProt P26361). As to the kind of experiment: Western blot of CFTR protein in cerebral arteries of naïve mice treated in vivo. Also noted: Cerebral artery lysates were prepared by grinding artery samples in lysis buffer; from tissue; host or cells: cerebral arteries of male wild-type C57BL/6N mice (naïve, heart failure or subarachnoid hemorrhage models). As to conditions: 3 mg/kg daily for 2 days, vs vehicle controls. As to the method: Western blots for CFTR were completed as previously described (12, 18). Cerebral artery lysates were prepared by grinding artery samples in lysis buffer containing 50 mM Tris (pH 7.3), 150 mM NaCl, 2 mM […], 0.1% Triton-X-100, 0.1% […] and protease inhibitors; the same lysis buffer was used to prepare cell culture lysates. Following lysis, the samples were centrifuged (10 minutes at 13,500 g; at 4° C.) to remove insoluble material. Immediately prior to polyacrylamide electrophoresis, additional SDS (to 2% final concentration), glycerol (to 2% final concentration), β-mercaptoethanol (to 2% final concentration) and dithiothreitol (2 mM final concentration) were added. Proteins were separated electrophoretically on 7% acrylamide gels and transferred onto polyvinylidene difluoride (PVDF) membranes. […]
The primary antibodies were conjugated with either peroxidase-labeled donkey anti-rabbit IgG (GE Healthcare Amersham (Piscataway, USA) cat# NA934) or peroxidase-labeled goat anti-mouse IgG (GE Healthcare Amersham cat# NA931) secondary antibodies. […] Developed films were evaluated densitometrically using “Image J” software (freely available from the NIH); digital images were evaluated with Image Lab software (Bio-Rad). […]

For experiment [2], the target named is T1, CFTR. Description: FACS-based FITC-S1P uptake in vascular smooth muscle cells. The format is cell-based. As to conditions: primary vascular smooth muscle cells; 48 h TNF 10 ng/ml + C18 6 μmol/L for last 24 h. Details: mesenteric artery segments were isolated, cut into small pieces and digested with trypsin, collagenase and elastase; endogenous in cells; host or cells: primary mesenteric artery vascular smooth muscle cells. On the procedure:
Procedures for isolating and culturing mesenteric artery smooth muscle cells were carried out as described in (10). Briefly, mesenteric artery segments were isolated, cut into small pieces and digested with trypsin, collagenase and elastase. The resulting cell suspension was washed several times in phosphate-buffered saline and plated in Dulbecco's Modified Eagle Medium (DMEM) culture media containing 10% fetal bovine serum and 1% penicillin-streptomycin. Cell cultures were maintained at 37° C. with 5% CO2 and split at […] cells seeding density. Baby hamster kidney fibroblast cells stably expressing wild-type human CFTR (10,17) were maintained in DMEM/F12 media containing 5% fetal bovine serum and 250 μmol/L methotrexate (which activates the CFTR transgene promoter). Cells were maintained under standard cell culture conditions at 37° C. with 5% CO2.
As previously described (10), cell monolayers (treated or untreated) were incubated with 1 μmol/L S1P-FITC for 60 minutes; the cells were then detached by trypsinization, washed twice with ice-cold PBS, filtered through a 35 μm cell strainer and analyzed using the Becton-Dickinson FACS Canto operated by FACS DIVA version 6.1 software. […] The analysis procedure determined the mean fluorescence intensity (arbitrary units) of each cell population, which is a measure of uptake.

Entries after “also recorded” stand apart in the source; their conditions may differ.

T1 sequence (P26361 whole entry): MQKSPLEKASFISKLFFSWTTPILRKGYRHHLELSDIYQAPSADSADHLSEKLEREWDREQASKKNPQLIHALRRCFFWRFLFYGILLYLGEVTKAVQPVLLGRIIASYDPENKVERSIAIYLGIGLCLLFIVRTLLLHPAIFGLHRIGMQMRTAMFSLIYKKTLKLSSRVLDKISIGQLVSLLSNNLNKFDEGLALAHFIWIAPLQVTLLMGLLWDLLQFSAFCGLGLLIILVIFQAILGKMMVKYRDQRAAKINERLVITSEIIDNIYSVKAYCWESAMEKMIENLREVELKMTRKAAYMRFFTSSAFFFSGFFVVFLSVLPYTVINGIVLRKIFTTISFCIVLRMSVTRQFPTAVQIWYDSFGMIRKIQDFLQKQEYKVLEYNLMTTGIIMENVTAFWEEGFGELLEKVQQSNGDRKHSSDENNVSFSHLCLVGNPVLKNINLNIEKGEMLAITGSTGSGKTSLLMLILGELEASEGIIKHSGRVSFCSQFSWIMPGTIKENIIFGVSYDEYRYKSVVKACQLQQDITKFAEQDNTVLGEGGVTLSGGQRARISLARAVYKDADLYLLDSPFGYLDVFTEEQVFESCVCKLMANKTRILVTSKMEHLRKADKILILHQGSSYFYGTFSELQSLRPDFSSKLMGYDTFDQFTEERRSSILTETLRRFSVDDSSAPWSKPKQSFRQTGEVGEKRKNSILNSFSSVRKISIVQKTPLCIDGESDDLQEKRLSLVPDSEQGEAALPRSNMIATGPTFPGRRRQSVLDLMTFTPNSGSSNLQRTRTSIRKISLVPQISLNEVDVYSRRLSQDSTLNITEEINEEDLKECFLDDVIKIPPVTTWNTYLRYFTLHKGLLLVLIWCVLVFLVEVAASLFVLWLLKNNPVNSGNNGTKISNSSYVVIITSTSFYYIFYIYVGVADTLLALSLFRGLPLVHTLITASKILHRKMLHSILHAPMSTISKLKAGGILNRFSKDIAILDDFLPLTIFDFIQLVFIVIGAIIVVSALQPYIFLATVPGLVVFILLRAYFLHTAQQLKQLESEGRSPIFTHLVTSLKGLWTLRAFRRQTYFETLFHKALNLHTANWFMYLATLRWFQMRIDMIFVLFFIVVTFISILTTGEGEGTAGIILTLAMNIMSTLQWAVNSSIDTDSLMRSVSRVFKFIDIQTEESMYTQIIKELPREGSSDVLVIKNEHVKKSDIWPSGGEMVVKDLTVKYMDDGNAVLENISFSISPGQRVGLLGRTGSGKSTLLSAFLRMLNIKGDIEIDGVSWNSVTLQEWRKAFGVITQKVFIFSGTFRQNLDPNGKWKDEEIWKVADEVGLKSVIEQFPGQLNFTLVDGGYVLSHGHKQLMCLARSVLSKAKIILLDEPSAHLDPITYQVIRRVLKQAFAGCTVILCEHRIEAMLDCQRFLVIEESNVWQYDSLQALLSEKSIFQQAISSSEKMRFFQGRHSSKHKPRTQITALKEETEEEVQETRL

As for `O=C(Nc1ncc(C(c2ccccc2Cl)N2CCC(O)C2)s1)C1(c2ccc3c(c2)OCO3)CC1` (centres unmarked) [C18, 1-(benzo[d][1,3]dioxol-5-yl)-N-(5-((2-chlorophenyl)(3-hydroxypyrrolidin-1-yl)methyl)thiazol-2-yl)cyclopropanecarboxamide], the “cerebral artery CFTR mRNA expression” value with CFTR mRNA is reported as “not affected; also recorded: does not influence”. In addition, at CFTR [1], the “CFTR protein expression in cerebral arteries” value is on record as “higher”. The “FITC-labeled sphingosine-1-phosphate uptake after TNF” value at CFTR [2] is “fully restores; also recorded: normalization”.

Turning to `Cc1ccc(NC(=O)C2(c3ccc4c(c3)OC(F)(F)O4)CC2)nc1-c1cccc(C(=O)O)c1` [lumacaftor], the “cerebral artery CFTR mRNA expression” value in the experiment with CFTR mRNA is reported as “unaffected; also recorded: does not influence”. For the same compound, the “CFTR protein expression in cerebral arteries” value at CFTR [1] (3 mg/kg) is recorded as “increases CFTR protein expression; also recorded: higher”.
